Laboratory results from patent US6350782B1, “Use of basic amino acids derivatives for lowering ceramide levels” (Sigma-Tau Industrie Farmaceutiche Riunite S.p.A., priority 1995, dated 2002).

Assays:
[1] = test system: Peripheral blood lymphocytes; experiment: Ceramide in anti-Fas antibody stimulated peripheral blood lymphocytes (DAG kinase assay); assay type: cell-based; conditions: for Ceramide: 30 min at 37° C., then anti-Fas antibody 30 min, Control 20, Control + anti-Fas antibody 81.6; for Effect on synthesis of ceramide in vitro: anti-Fas stimulated lymphocytes
Source text: (§1) Ceramide levels can be directly measured by isolating peripheral blood lymphocytes from the patient. Thereafter the cells are centrifuged to eliminate the supernatant, and the lipids are removed from the cell pellet. The organic phase containing the ceramide can be assayed using the “DAG kinase assay” for phosphorylating the ceramide which is then evidenced by autoradiography [Cifone, M. G. et al., J. Exp. Med., 180(4): 1547-52].
Peripheral blood lymphocytes were isolated according to the classical methodologies. The cells were incubated with L-carnitine (200 mcg/ml) or with isovaleryl L-carnitine for 30 min at 37° C., and afterwards with an anti-Fas monoclonal antibody for another 30 min. The cells were then centrifuged, eleminating the supernatant, and the cell pellet was delipidized. The organic phase (containing the ceramide) was assayed in the “DAG kinase assay” for phosphorylating ceramide which subsequently was evidenced by autoradiography.
It is known that the cells suitably stimulated (i.e. with Fas-L, inter-leukin-1, etc.) generate ceramide. An anti-Fas antibody was employed to increase the production of ceramide from a basal value (20 picomoles per 10^6 cells) to 81.6 picomoles per 10^6 cells.

[2] = test system: Ceramide in the muscles; experiment: Muscle ceramide in patients with symptomatic neuro-myopathy (chronic fatigue syndrome); assay type: in vivo, human; conditions: 3 g per day oral, two months
Description: Two patients affected by symptomatic neuro-myopathy (chronic fatigue syndrome) were treated with 3 g per clay of L-carnitine by oral route through two months. Ceramide was measured in the muscles before and after the administration.

[3] = test system: lymphocyte-associated ceramide; experiment: Lymphocyte-associated ceramide in hyperthyroidism patients treated with metimazole; assay type: in vivo, human; conditions: 8 g per day oral, 4 weeks
Source text: Ceramide levels can be directly measured by isolating peripheral blood lymphocytes from the patient. Thereafter the cells are centrifuged to eliminate the supernatant, and the lipids are removed from the cell pellet. The organic phase containing the ceramide can be assayed using the “DAG kinase assay” for phosphorylating the ceramide which is then evidenced by autoradiography [Cifone, M. G. et al., J. Exp. Med., 180(4): 1547-52]. Four patients affected by hyperthyroidism who had been treated with metimazole (15 mg by oral route, daily) for more than eight months, were treated for 4 weeks with 8 g per day L-carnitine by oral route. The lymphocyte-associated ceramide was determinded before and after the treatment.

[4] = test system: lymphocyte-associated ceramide; experiment: Lymphocyte-associated ceramide in patients with hepato-splenomegaly due to viral hepatitis of C type; assay type: in vivo, human; conditions: 4 g bolus intravenous
Source text: Ceramide levels can be directly measured by isolating peripheral blood lymphocytes from the patient. Thereafter the cells are centrifuged to eliminate the supernatant, and the lipids are removed from the cell pellet. The organic phase containing the ceramide can be assayed using the “DAG kinase assay” for phosphorylating the ceramide which is then evidenced by autoradiography [Cifone, M. G. et al., J. Exp. Med., 180(4): 1547-52]. Three patients with hepato-splenomegaly due to viral hepatitis of C type were treated with 4 g of L-carnitine bolus by intravenous route. The lymphocyte-associated ceramide was determined before and after 3 and 48 hours following the infusion.

[5] = test system: peripheral blood lymphocyte-associated ceramide; experiment: Peripheral blood lymphocyte-associated ceramide in patients with protein catabolism and lipidic depletion from tubercular infection; assay type: in vivo, human; conditions: 8 g per day parenteral, two weeks
Source text: as §1
Four patients affected by protein catabolism and lipidic depletion as a consequence of tubercular infection were treated for two weeks with 8 g per day L-carnitine by parenteral route.
The peripheral blood lymphocyte-associated ceramide was determined before and after the treatment.

C[N+](C)(C)C[C@H](O)CC(=O)[O-] [L-carnitine]
Ceramide ([1]; 100 mcg/ml): 7.3 picomoles per 10^6 cells
Effect on synthesis of ceramide in vitro [1]: inhibit the synthesis of ceramide in vitro
Ceramide post-treatment ([2]; Patient 1, pre-treatment 76): 28 picomoles per mg of proteins
Ceramide post-treatment ([2]; Patient 2, pre-treatment 142): 46 picomoles per mg of proteins
Ceramide post-treatment ([3]; Patient 1, pre-treatment 73): 26 picomoles/10^6 cells
Ceramide post-treatment ([3]; Patient 2, pre-treatment 45): 27 picomoles/10^6 cells
Ceramide post-treatment ([3]; Patient 3, pre-treatment 111): 36 picomoles/10^6 cells
Ceramide post-treatment ([3]; Patient 4, pre-treatment 69): 18 picomoles/10^6 cells
Duration of the effect on ceramide levels [4]: remains at least for two days
Effect of bolus on ceramide levels ([4]; after 3 hours from the infusion): inhibited the increase of ceramide levels already after 3 hours
Ceramide After 3 hrs ([4]; Patient 1, pre-treatment 65): 12 picomoles/10^6 cells
Ceramide After 48 hrs ([4]; Patient 1, pre-treatment 65): 31 picomoles/10^6 cells
Ceramide After 3 hrs ([4]; Patient 2, pre-treatment 77): 32 picomoles/10^6 cells
Ceramide After 48 hrs ([4]; Patient 2, pre-treatment 77): 21 picomoles/10^6 cells
Ceramide After 3 hrs ([4]; Patient 3, pre-treatment 79): 24 picomoles/10^6 cells
Ceramide After 48 hrs ([4]; Patient 3, pre-treatment 79): 23 picomoles/10^6 cells
Ceramide post-treatment ([5]; Patient 1, pre-treatment 127): 59 picomoles/10^6 cells
Ceramide post-treatment ([5]; Patient 2, pre-treatment 265): 77 picomoles/10^6 cells
Ceramide post-treatment ([5]; Patient 3, pre-treatment 301): 152 picomoles/10^6 cells
Ceramide post-treatment ([5]; Patient 4, pre-treatment 78): 54 picomoles/10^6 cells

CC(C)CC(=O)O[C@H](CC(=O)[O-])C[N+](C)(C)C [isovaleryl L-carnitine]
Ceramide ([1]; 50 mcg/ml): 8.6 picomoles per 10^6 cells
Ceramide ([1]; 100 mcg/ml): 7.3 picomoles per 10^6 cells
Effect on synthesis of ceramide in vitro [1]: inhibit the synthesis of ceramide in vitro
